Structures can show the parent of a compound that is named as a salt.
Q: Which melting point does the source give for `N#C[C@@]1(c2cncc(Br)c2)C[C@H]2C=C[C@@H](C1)N2` here?
A: 152 to 153 °C

Q: For `N#C[C@@]1(c2cncc(Br)c2)C[C@H]2CC[C@@H](C1)N2`, which melting point is on record?
A: 128 to 130 °C

Q: With `N#C[C@@]1(c2cncc(I)c2)C[C@H]2C=C[C@@H](C1)N2C1COC1` as the molecule, how does the melting point read?
A: 170 to 171 °C

Q: For `N#C[C@@]1(c2cncc(Br)c2)C[C@H]2CC[C@@H](C1)N2` (as salt: TFA), which melting point is on record?
A: 176 to 178 °C

Q: Which melting point does the source give for `N#C[C@@]1(c2cncc(F)c2)C[C@H]2C=C[C@@H](C1)N2C1CCC1` here?
A: 91 to 93 °C

Q: For `CC(C)(C)OC(=O)N1[C@@H]2CC[C@H]1C[C@](C#N)(c1cncc(Br)c1)C2`, which melting point is on record?
A: 125 to 127 °C
